Experiments:
[1] = tested on: Jurkat cells; assay: CellTiterGlo cell viability assay; format: cell-based, human; conditions: 24 h
Method in brief: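 Jurkat cells treated with compound titrations; viability read by CellTiter-Glo 2.0 luminescence after 10 min at room temperature, fitted to a four-parameter curve. Proteomics samples lysed in 2% SDS, 50 mM Tris pH 8.5, TCEP and CAA, sonicated, then analysed by label-free quantitation.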

[2] = tested on: kinase protein levels in MCF-7 cells; assay: TMT-labeled quantitative proteomics; format: cell-based, human; conditions: for kinase degradation: MCF-7 cells, 6 h
Experimental: (§1) 50 µl of SDS Lysis Buffer (2% SDS, 50 mM TRIS pH 8.5, 10 mM TCEP, 40 mM CAA) was added to each sample. Cells were transferred into low binding reaction tubes (Eppendorf:
(§2) Methanol/Chloroform Precipitation. 200 µl of methanol and 50 µl of chloroform were added to each sample reaction tube and mixed via vortex. 150 µl of milliQ-H2O were added and samples were vortexed further. Samples were centrifuged for 5 minutes at 15000 g and the aqueous layer above the interphase was removed. 150 µl of methanol was added, samples were vortexed and centrifuged for 10 minutes at 15000 g to precipitate the pellet. The aforementioned wash procedure was repeated twice before transferring the pellet to a new low bind reaction tube in which it was allowed to dry for 5 minutes.
(§3) Dissolving the Protein Pellet and Protein Quantification. 50 µl of digestion buffer (8 M Urea, 50 mM TRIS pH 8) was added to each sample before vortexing and shaking at 750 rpm at room temperature for 10 minutes to solubilize the pellet. Protein quantification via PierceTM […]
(§4) Protein Digestion. Samples were diluted 1:2 with 50 mM TRIS pH 8.5 to reach a final concentration of 4 M Urea. Lys-C (Promega: VA1170) was added at a 1:100 enzyme/substrate ratio. Samples were agitated at 550 rpm and 37 °C for 3 h. Samples were further diluted with 50 mM TRIS pH 8.5 to a final concentration of 1 M Urea and Trypsin (Promega: V5280) was added at a 1:100 enzyme/substrate ratio. Samples were agitated overnight at 550 rpm and 37 °C. The digestion was stopped the following day via addition of TFA to a final concentration […]
(§5) Solid Phase Extraction via C18 Cartridges. Sep-Pak C18 Cartridges (Waters: WAT054955) were used for solid phase extraction of digested peptides. For preconditioning of C18 cartridges, 1 mL of methanol was added to each column followed by 1 mL of solution B (0.1% formic acid, 80% acetonitrile) and 1 mL of solution A (0.1% formic acid, ddH2O) twice. Samples […]
(§6) were loaded to their respective columns and once samples had passed, columns were washed twice with solution A to remove unwanted components from the loading step. Elution of samples was carried out via introduction of 40% and 60% acetonitrile steps. Samples were dried and snap frozen in liquid nitrogen.
(§7) TMT-Labeling. Desalted peptides were dried and resuspended in TMT-labeling buffer (200 mM EPPS pH 8.2, 20% acetonitrile). 10 μg of peptides per condition were subjected to TMT labeling with 1:2.5 peptide TMT ratio (w/w) for 1 h at room temperature. The labeling reaction was quenched by addition of hydroxylamine to a final concentration of 0.5% and incubation at room temperature for 15 minutes. Successful TMT labeling was verified by mixing equimolar ratios of peptides and subjecting the mix to single shot LC-MS/MS analysis. For high pH reversed phase fractionation on a Dionex analytical HPLC, 50 µg of pooled and purified TMT labelled samples were resuspended in 10 mM ammonium-bicarbonate (ABC), 5% acetonitrile, and separated on a 250 mm long C18 column (Aeris Peptide XB-C18, 4.6 mm ID, 2.6 µm particle size; Phenomenex) using a multistep gradient from 100% solvent A (5% acetonitrile, 10 mM ABC in water) to 60% solvent B (90% acetonitrile, 10 mM ABC in water) over 70 minutes. Eluting peptides were collected every 45 seconds into a total of 96 fractions, which were cross-concatenated into 24 fractions and dried in a vacuum concentrator and resuspended in 3% acetonitrile with 0.1% TFA for LC-MS analysis.
(§8) Mass spectrometry data acquisition. Tryptic peptides were analyzed on an Orbitrap Lumos coupled to an easy nLC 1200 (ThermoFisher Scientific) using a 35 cm long, 75 µm ID fused-silica column packed in house with 1.9 µm C18 particles (Reprosil pur, Dr. Maisch), and kept at 50 °C using an integrated column oven (Sonation). HPLC solvents consisted of 0.1% formic acid in water (buffer A) and 0.1% formic acid and 80% acetonitrile in water (buffer B). Assuming

[3] = target: T1, kinase protein levels in MCF-7 cells (Homo sapiens, UniProt A0A096LP01); assay: TMT-labeled quantitative proteomics; format: cell-based
T1 construct: endogenous in cells; host or cells: MCF-7
Experimental: as §1, §2, §3, §4, §5, §6, §7, §8

[4] = target: full-length AAK1 (Homo sapiens, UniProt Q2M2I8); assay: NanoBRET target engagement assay, intact and permeabilized cells
[5] = protein SMIM26, MCF7, 1 µM, set2
[6] = AAK1 intact (IC50±sd)/μM, NanoBRET, intact cells, mean of duplicates, ^a values estimated by extrapolation
[7] = AAK1 permeabilized (IC50±sd)/μM, NanoBRET, permeabilized cells, mean of duplicates
[8] = protein NBPF19;NBPF8;NBPF10;NBPF15;NBPF26;NBPF14;NBPF1;NBPF12, MCF, 0.25µM, set4
[9] = protein NBPF19;NBPF8;NBPF26;NBPF14;NBPF12;NBPF10;NBPF15;NBPF1, MCF7, 2.5 µM, set3
[10] = protein NUDT4;NUDT11;NUDT10, MCF, 0.25µM, set4
[11] = protein UQCRHL;UQCRH, MCF, 0.25µM, set4
[12] = protein LINC00493, MCF7, 2.5 µM, set3
[13] = protein LINC00493, MCF, 0.25µM, set4
[14] = protein NBPF19;NBPF15;NBPF8;NBPF10;NBPF26;NBPF14, MCF7, 1 µM, set1.1
[15] = protein NUDT4, MCF7, 1 µM, set1.1

T1 sequence (A0A096LP01 whole entry): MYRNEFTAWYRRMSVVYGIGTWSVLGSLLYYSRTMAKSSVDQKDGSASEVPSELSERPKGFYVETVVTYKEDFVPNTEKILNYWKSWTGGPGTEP
Chain of full-length AAK1 (Q2M2I8 whole entry): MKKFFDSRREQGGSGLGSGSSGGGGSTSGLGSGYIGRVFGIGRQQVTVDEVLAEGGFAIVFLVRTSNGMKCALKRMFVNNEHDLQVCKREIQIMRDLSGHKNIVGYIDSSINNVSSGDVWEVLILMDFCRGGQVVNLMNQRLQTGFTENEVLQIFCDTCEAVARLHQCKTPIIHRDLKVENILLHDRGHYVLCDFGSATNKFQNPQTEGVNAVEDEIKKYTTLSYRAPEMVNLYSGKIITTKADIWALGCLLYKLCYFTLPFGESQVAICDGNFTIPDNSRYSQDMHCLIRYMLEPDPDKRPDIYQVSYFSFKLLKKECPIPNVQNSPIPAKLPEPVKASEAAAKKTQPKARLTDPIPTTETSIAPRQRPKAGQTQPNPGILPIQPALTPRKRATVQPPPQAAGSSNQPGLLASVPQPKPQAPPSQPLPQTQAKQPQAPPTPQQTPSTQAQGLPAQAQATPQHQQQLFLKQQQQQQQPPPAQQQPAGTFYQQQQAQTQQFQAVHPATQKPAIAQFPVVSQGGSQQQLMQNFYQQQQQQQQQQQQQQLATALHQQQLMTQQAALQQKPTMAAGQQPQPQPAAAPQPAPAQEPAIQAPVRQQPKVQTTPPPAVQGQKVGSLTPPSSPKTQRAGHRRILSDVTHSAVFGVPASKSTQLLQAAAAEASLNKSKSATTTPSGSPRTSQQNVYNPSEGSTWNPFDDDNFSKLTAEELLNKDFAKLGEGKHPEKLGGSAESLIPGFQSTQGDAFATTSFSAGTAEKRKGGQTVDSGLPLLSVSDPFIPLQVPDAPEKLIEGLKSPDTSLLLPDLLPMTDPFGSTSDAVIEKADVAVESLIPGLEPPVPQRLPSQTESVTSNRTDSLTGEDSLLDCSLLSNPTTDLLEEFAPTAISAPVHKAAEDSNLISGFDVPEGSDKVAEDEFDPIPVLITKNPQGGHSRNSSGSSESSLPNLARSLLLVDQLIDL

SMILES | kinase degradation ([2]; 1 μM) | P.Value (compound/DMSO) [3, 5] | log2FC (compound/DMSO) [3, 5] | IC50 [4, 6] [µM] | IC50 [4, 7] [µM] | kinase degradation ([2]; 0.25 μM) | kinase degradation ([2]; 2.5 μM) | log2FC (compound/DMSO) [2, 8] | log2FC (compound/DMSO) [2, 9] | log2FC (compound/DMSO) [2, 10] | log2FC (compound/DMSO) [2, 11] | P.Value (compound/DMSO) [3, 12] | log2FC (compound/DMSO) [3, 12] | P.Value (compound/DMSO) [3, 13] | log2FC (compound/DMSO) [3, 13] | log2FC (compound/DMSO) [2, 14] | log2FC (compound/DMSO) [2, 15] | further results
CC(=O)N[C@H](C(=O)N1C[C@H](O)C[C@H]1C(=O)NCc1ccc(-c2scnc2C)cc1OCCOCCOCCOCCNC(=O)c1cc(Nc2cc(C3CC3)[nH]n2)nc(Nc2ccc(CC#N)cc2)n1)C(C)(C)C [5-b] | did not result in significant degradation of any kinase | 0.1541 | -0.1317 | 0.299 ± 0.038 | 0.192 ± 0.005 |  |  |  |  |  |  |  |  |  |  |  |  | IC50 ([1]; Homo sapiens, mean of triplicates, ^b/^c values estimated, read-out: IC50±sd/μM (cell viability)): ~18.7 µM
CC(=O)N[C@H](C(=O)N1C[C@H](O)C[C@H]1C(=O)NCc1ccc(-c2scnc2C)cc1OCCOCCOCCOCCOCCC(=O)N1CCN(c2ccc(Nc3ncc(Cl)c(Nc4ccccc4C(N)=O)n3)cc2)CC1)C(C)(C)C [6-e] | did not result in significant degradation of any kinase | 0.2313 | -0.1331 | 0.53 ± 0.246 | 0.123 ± 0.02 | no significantly degraded kinases were detected | no significantly degraded kinases were detected | 0.2043 | 0.155 | -0.054 | -0.5234 | 0.7735 | 0.04253 | 0.8916 | -0.008166 |  |  | effect on cell viability (cytotoxicity) [1]: no cytotoxicity was observed
Cc1ncsc1-c1ccc(CNC(=O)[C@@H]2C[C@@H](O)CN2C(=O)[C@@H](NC(=O)CCOCCOCCNC(=O)c2cc(Nc3cc(C4CC4)[nH]n3)nc(Nc3ccc(CC#N)cc3)n2)C(C)(C)C)cc1 [5-a] | did not result in significant degradation of any kinase |  |  | ~8.76 | 0.162 ± 0.002 |  |  |  |  |  |  |  |  |  |  | -0.2083 | -0.05063 | AAK1 intact (IC50±sd)/μM ([4]; NanoBRET, intact cells, mean of duplicates, ^a values estimated by extrapolation): single-digit micromolar; cell permeability / cell penetration ([4]; as shown by the NanoBRET data (intact vs permeabilized cells)): poor cell permeability
Cc1ncsc1-c1ccc(CNC(=O)[C@@H]2C[C@@H](O)CN2C(=O)[C@@H](NC(=O)CCOCCOCCOCCN2CCN(c3cc(Nc4cc(C5CC5)[nH]n4)nc(Nc4ccc(CC#N)cc4)n3)CC2)C(C)(C)C)cc1 [4-a] | significant degradation of several kinases |  |  | 0.21 ± 0.044 | 0.057 ± 0.004 | Few kinases were degraded | the number of degraded kinases was again lower | 0.1164 | 0.132 | 0.003804 | 0.8375 | 0.002092 | 0.3781 | 0.1285 | 0.1013 | -0.3973 | -0.04751 | 

From publication PMC11851430, “Workflow for E3 Ligase Ligand Validation for PROTAC Development” (ACS Chemical Biology, 2025)
